In ChEMBL document CHEMBL1131604, “3,6-Diamino-10-methylacridan: uncharged precursor of acriflavine and its unique antimicrobial activity” (1998):

What was measured:
[1] = system: Human alphaherpesvirus 1; experiment: Reduction of titer of Herpes simplex type-1 virus after 2 hr of incubation at 0.1% concentration; type: functional
[2] = system: Human alphaherpesvirus 1; experiment: Reduction of titer of Herpes simplex type-1 virus after 2 hr of incubation at 0.01% concentration; type: functional

SMILES: CN1c2cc(N)ccc2Cc2ccc(N)cc21
- TCID50 [1]: 3.7
- TCID50 [2]: 1.6
